Measured values: ChEMBL document CHEMBL4024772, “Aniline-Based Inhibitors of Influenza H1N1 Virus Acting on Hemagglutinin-Mediated Fusion” (J Med Chem, 2018)

Legend:
Experiment in all cases: microbe, parasite or virus in culture
Type in all cases: functional, cell-based
Details in all cases: MDCK
Influenza A virus [1] = system: Influenza A virus
Influenza A virus [2] = system: Influenza A virus; remark: listed apart in the source
Influenza A virus [3] = system: Influenza A virus; remark: listed apart in the source

Structure (SMILES) | EC50 (Influenza A virus [1]) [µM] | EC50 (Influenza A virus [2]) [µM] | EC50 (Influenza A virus [3]) [µM]
CC(C)c1ccccc1NCCN1CCCCCC1 | > 100 | > 100 | 1.5
CC(C)c1ccccc1NCCN1CCCCC1 | > 100 | > 100 | 2.3
NC(=O)c1ncn([C@@H]2O[C@H](CO)[C@@H](O)[C@H]2O)n1 [RIBAVIRIN] | – | – | 15
